Columns and labels:
CDK4/cyclin D1 = target: T1, CDK4/cyclin D1 (Homo sapiens, UniProt P11802); experiment: CDK4/cyclin D1 kinase activity, mobility shift assay; format: biochemical
T1 construct: purchased ProQinase 0142-0143-1
Procedure: (§1) In vitro CDK kinase activity was tested using a mobility shift assay.
(§2) The IC50 values of the compounds were obtained by fitting using XLFit excel add-in version 5.4.0.8. Fitting formula:
(§3) Y=Bottom+(Top−Bottom)/(1+10^((Log IC50−X)×Hill Slope)). • X: the log value of the compound concentration; Y: the percent inhibition of the compound.

CDK6/cyclin D3 = target: T2, CDK6/cyclin D3 (Homo sapiens, UniProt Q00534); experiment: CDK6/cyclin D3 kinase activity, mobility shift assay; format: biochemical
T2 construct: purchased Carna 04-107
T2 sequence (Q00534 whole entry): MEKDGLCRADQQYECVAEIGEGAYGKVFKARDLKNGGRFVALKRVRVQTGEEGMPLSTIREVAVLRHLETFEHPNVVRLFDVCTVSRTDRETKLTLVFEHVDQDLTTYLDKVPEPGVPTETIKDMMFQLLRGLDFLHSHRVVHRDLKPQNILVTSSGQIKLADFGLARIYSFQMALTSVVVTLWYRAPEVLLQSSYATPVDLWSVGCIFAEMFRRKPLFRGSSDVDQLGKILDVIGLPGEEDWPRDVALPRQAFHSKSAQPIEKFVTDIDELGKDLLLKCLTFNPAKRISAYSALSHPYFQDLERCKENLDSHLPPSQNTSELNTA
T2 sequence (P30281 whole entry partner): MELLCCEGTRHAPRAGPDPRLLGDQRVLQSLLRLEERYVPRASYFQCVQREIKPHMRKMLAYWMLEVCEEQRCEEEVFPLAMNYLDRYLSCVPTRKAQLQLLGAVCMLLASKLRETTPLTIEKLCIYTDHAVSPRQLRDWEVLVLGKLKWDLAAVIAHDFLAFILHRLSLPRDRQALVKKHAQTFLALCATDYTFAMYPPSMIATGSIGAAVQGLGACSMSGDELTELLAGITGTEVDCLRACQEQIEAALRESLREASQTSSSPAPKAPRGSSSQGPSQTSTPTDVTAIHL
Procedure: as §1, §2, §3

human PXR = target: T3, human PXR (Homo sapiens, UniProt O75469); experiment: PXR induction assay in DPX2 cells (luciferase reporter); format: cell-based
T3 construct: host or cells: DPX2 (HepG2)
T3 sequence (O75469 1-434): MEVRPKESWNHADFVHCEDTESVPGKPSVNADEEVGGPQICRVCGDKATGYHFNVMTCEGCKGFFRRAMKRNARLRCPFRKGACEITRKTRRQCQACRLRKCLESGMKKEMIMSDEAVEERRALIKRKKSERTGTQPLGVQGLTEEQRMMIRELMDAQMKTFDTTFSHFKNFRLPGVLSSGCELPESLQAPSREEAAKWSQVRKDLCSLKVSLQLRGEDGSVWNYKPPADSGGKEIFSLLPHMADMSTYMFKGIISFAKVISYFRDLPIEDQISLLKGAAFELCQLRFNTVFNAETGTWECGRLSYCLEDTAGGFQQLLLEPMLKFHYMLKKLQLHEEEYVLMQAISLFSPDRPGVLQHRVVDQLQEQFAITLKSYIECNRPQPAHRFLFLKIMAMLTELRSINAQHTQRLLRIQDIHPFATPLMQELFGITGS
Procedure: 1. The potential of the test compounds to induce the activity of drug metabolism enzymes by in vitro activating PXR was evaluated.
1) DPX2 (HepG2 cells were stably transfected with the human PXR gene and the fluorescent reporter gene) cells were purchased from Puracyp (Carlsbad, CA).
When covering 80-90% of the bottom of the culture flask, the cells were digested.
4) The cell suspension was transferred to a conical-bottomed centrifuge tube and centrifuged at 120 g for 10 min. The cells were suspended in the plating medium and adjusted to a concentration of 4×10^5 cells/mL. 100 μL of diluted cells were added to each well of a 96-well cell culture plate. The culture plate was placed in an incubator and incubated at 37° C. for 24 h before PXR activation assays.
The final concentration of DMSO was 0.1%. To 1 mL of pre-incubated medium, 1 μL of DMSO was added as a solvent control.
2) The cell culture plate was removed from the incubator, and the medium was discarded. 100 μL of each of the test compounds and positive compound was added to an appropriate well in duplicate, and the cell plate was placed in an incubator and incubated for 24 h.
1) After […] of drug treatment, quantification of PXR activation could be performed on the culture.
2) The CellTiter-Fluor™ cell viability assay kit and the One-Glo luciferase reagent were equilibrated to room temperature. The GF-AFC (10 μL) substrate was added to assay buffer (10 mL) to form 2× reagent, and the reagent was then diluted to 1× with 10 mL of PBS; the ONE-Glo substrate was added to the ONE-Glo luciferase assay buffer.
5) The ONE-Glo reagent was poured into a reagent reservoir, and then 50 μL was transferred to each well using a multi-channel pipette. The reagent was gently and well mixed, and the mixture was incubated and well mixed at room temperature for 5 min. After the incubation, the luminescence value of each well was read using a luminometer.
The luciferase activity was expressed in terms of […], where RLU is the mean luminescence intensity value of two replicates of each concentration of each compound, and RFU is the mean fluorescence intensity of two replicates of each concentration of each compound.
The calculation formula for induction fold: […]

[1] = compound concentration 0.123 μM

T1 sequence (P11802 whole entry): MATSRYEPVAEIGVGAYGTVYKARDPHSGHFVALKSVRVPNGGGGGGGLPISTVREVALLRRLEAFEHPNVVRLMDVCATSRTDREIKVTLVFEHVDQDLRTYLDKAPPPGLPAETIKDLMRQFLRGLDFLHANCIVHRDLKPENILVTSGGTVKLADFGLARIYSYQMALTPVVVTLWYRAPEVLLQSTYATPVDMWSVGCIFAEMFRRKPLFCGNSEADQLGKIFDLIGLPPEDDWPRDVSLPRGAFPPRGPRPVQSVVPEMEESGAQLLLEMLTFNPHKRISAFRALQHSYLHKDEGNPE
T1 sequence (P24385 whole entry partner): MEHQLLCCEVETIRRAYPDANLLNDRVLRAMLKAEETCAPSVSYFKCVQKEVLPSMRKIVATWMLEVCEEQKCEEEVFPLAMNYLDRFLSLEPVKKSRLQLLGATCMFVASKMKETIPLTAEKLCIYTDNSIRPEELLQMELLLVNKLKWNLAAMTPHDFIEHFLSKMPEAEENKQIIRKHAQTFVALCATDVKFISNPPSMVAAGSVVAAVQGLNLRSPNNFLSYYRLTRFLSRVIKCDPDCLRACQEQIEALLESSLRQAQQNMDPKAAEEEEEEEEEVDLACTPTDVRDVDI

Row | IC50 (CDK4/cyclin D1) [nM] | IC50 (CDK6/cyclin D3) [nM] | Induction fold (human PXR; [1]) | Induction fold (human PXR; compound concentration 10.0 μM) | Compound
1 |  |  | 0.87 | 1.43 | C[C@H]1COc2c(-c3nc(N[C@@H]4CCOC[C@H]4O)ncc3Cl)cc(F)c3nc(C(C)(C)O)n1c23 (single isomer, unassigned) [Isomer 1 with a retention time of 2.078 min in Example 4]
2 | 2.5 | 39 |  |  | Cc1nc2c(F)cc(-c3nc(N[C@@H]4CCN(S(C)(=O)=O)C[C@H]4O)ncc3Cl)c3c2n1[C@@H](C)CO3 (single isomer, unassigned) [Isomer 1 with a retention time of 2.094 min in Example 2]
3 | 26 | > 1000 |  |  | Cc1nc2c(F)cc(-c3nc(N[C@@H]4CCOC[C@H]4O)ncc3F)c3c2n1[C@@H](C)CO3 (single isomer, unassigned) [Isomer 1 with a retention time of 2.903 min in Example 1]
4 | 15 | 64 |  |  | Cc1nc2c(F)cc(-c3nc(N[C@@H]4CCOC[C@H]4O)ncc3Cl)c3c2n1[C@@H](C)CO3 (single isomer, unassigned) [Isomer 1 with a retention time of 3.518 min in Example 3]
5 |  |  | 0.99 | 1.48 | C[C@@H]1COc2c(-c3nc(N[C@@H]4CCOC[C@H]4O)ncc3Cl)cc(F)c3nc(C(C)(C)O)n1c23 (single isomer, unassigned) [Isomer 2 with a retention time of 1.887 min in Example 4]
6 | 1.5 | 9.1 |  |  | Cc1nc2c(F)cc(-c3nc(N[C@@H]4CCN(S(C)(=O)=O)C[C@H]4O)ncc3Cl)c3c2n1[C@@H](C)CO3 (single isomer, unassigned) [Isomer 2 with a retention time of 2.499 min in Example 2]
7 | 11 | 301 |  |  | Cc1nc2c(F)cc(-c3nc(N[C@@H]4CCOC[C@H]4O)ncc3F)c3c2n1[C@@H](C)CO3 (single isomer, unassigned) [Isomer 2 with a retention time of 3.997 min in Example 1]

Row | Compound | IC50 (CDK4/cyclin D1) [nM] | IC50 (CDK6/cyclin D3) [nM] | Induction fold (human PXR; [1]) | Induction fold (human PXR; compound concentration 10.0 μM)
8 | CC1COc2c(-c3nc(N[C@@H]4CCOC[C@H]4O)ncc3Cl)cc(F)c3nc(C(C)(C)O)n1c23 (mixture of isomers) [4f (racemate) in Example 4] | 15 | 171 |  | 

— patent US20240140963A1, “FUSED TRICYCLIC CYCLIN-DEPENDENT KINASE INHIBITOR, AND PREPARATION METHOD THEREFOR AND PHARMACEUTICAL USE THEREOF” (Tuojie Biotech (Shanghai) Co., Ltd., priority 2021, published 2024)
